What was measured:
[1] = target: PI3Kδ (Homo sapiens (Human), UniProt O00329); experiment: PI3Kδ enzymatic inhibitory activity IC50 assay; format: biochemical; settings: luminescence readout, 25 μM ATP, 50 μM PIP2, 2 hours at room temperature
Description: (§1) 1. Buffer preparation: 50 mM HEPES, pH 7.5, 3 mM MgCl2, 1 mM EGTA, 100 mM NaCl, 0.03% CHAPS.
(§2) 2. The compound was formulated in 100% DMSO in a concentration gradient, and deposited to a 384-well plate with a final DMSO concentration of 1%.
(§3) 3. PI3Kα, PI3Kδ, PI3Kβ and PI3Kγ enzymes (purchased from EMD Millipore) were diluted to the optimal concentration with the following buffer: 50 mM HEPES, pH 7.5, 3 mM MgCl2, 1 mM EGTA, 100 mM NaCl, 0.03% CHAPS, 2 mM DTT, transferred to a 384-well plate and incubated with the compound for a certain time.
(§4) 4. The substrate was diluted to an optimal concentration with the following buffer: 50 mM HEPES, pH 7.5, 3 mM MgCl2, 1 mM EGTA, 100 mM NaCl, 0.03% CHAPS, 2 mM DTT, 50 μM PIP2, 25 μM ATP and added to the 384-well plate to initiate the reaction. PI3Kα, PI3Kβ and PI3Kγ were allowed to react for 1 h at room temperature, and PI3Kδ reacted for 2 hours at room temperature. Another 10 μL ADP-Glo Detection Reagent also needed to be added for PI3Kβ and PI3Kγ, and then equilibrated at room temperature for 30 minutes.
(§5) 5. Luminescence was read by using Flexstation, and the inhibition rate was calculated as the average value of two tests.

[2] = target: PI3Kα (Homo sapiens (Human), UniProt P42336); experiment: PI3Kα enzymatic inhibitory activity IC50 assay; format: biochemical; settings: selectivity ratio
Chain of PI3Kα (P42336 whole entry, species assumed): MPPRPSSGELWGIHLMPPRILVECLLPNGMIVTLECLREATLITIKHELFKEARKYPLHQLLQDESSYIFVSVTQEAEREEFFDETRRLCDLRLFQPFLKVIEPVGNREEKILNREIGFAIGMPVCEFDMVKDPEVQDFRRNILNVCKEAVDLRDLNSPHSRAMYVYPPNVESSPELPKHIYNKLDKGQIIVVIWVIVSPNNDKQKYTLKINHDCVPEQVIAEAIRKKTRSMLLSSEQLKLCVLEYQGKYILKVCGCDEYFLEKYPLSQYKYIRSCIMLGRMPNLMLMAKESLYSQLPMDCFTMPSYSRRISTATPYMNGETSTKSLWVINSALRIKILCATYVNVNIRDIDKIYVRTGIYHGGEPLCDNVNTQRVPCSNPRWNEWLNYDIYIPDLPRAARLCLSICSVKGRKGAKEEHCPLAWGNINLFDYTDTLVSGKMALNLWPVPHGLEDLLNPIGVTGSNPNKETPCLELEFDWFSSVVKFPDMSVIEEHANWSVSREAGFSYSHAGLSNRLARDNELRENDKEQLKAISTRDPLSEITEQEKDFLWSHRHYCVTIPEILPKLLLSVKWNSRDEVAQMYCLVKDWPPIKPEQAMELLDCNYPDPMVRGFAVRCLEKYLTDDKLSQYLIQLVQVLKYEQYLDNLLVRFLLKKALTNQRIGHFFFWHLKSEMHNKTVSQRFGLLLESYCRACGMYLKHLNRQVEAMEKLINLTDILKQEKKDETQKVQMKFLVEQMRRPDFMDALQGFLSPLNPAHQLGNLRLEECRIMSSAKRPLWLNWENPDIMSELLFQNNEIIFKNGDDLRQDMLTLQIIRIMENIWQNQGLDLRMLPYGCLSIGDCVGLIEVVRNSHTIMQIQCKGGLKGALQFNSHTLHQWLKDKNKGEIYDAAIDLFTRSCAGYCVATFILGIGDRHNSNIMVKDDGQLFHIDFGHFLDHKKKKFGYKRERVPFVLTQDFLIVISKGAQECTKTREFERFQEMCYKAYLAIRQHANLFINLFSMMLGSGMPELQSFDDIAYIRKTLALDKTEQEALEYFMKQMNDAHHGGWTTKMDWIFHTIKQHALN
Chain of PI3Kα (P27986 whole entry partner, species assumed): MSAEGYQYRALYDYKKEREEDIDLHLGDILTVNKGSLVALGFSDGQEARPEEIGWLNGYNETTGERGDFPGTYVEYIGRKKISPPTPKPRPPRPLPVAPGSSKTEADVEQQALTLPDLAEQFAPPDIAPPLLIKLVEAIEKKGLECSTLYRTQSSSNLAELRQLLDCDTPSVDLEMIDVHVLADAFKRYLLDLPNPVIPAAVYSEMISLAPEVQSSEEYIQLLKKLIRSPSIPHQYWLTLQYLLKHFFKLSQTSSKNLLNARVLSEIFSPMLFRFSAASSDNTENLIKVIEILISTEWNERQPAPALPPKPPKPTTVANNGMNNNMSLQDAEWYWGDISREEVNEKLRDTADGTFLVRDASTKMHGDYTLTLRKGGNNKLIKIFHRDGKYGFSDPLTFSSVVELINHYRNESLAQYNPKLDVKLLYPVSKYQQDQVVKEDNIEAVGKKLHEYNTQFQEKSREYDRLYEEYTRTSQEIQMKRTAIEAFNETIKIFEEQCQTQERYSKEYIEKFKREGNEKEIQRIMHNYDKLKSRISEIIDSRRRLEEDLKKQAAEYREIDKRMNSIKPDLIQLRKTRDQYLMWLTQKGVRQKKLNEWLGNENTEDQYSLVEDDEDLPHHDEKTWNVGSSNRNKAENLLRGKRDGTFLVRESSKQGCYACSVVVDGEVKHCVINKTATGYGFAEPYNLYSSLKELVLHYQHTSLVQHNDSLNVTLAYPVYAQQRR
Description: as §1, §2, §3, §4, §5

[3] = tested on: Raji cell TNF-α generation; experiment: Inhibition of human Raji cell TNF-α generation induced by human IgM (ELISA); format: cell-based; settings: Raji cells, IgM stimulation, 24 hours
Description: 1. Raji cell line (human Burkitt's lymphoma origin) (ATCC, Cat#CCL-86) was used.
2. Raji cells were applied onto the 96-well plate with 1×10^5/well.
3. The compounds to be screened were diluted to the corresponding test concentration, and added to the cell culture system 30 minutes prior to IgM stimulation.
4. 10 µg/ml IgM monoclonal antibody (JACKSON, Cat#109-006-129) was added to the cell culture system in order to stimulate the cells generating TNF-α.
5. After 24 hours, the amount of TNF-α produced by the cell line was determined by ELISA.
6. The inhibition rates at each concentration of the compound were calculated and plotted to calculate 50% inhibition rate (IC50), and the specific results were shown in table 3.

Chain of PI3Kδ (O00329 whole entry, species assumed): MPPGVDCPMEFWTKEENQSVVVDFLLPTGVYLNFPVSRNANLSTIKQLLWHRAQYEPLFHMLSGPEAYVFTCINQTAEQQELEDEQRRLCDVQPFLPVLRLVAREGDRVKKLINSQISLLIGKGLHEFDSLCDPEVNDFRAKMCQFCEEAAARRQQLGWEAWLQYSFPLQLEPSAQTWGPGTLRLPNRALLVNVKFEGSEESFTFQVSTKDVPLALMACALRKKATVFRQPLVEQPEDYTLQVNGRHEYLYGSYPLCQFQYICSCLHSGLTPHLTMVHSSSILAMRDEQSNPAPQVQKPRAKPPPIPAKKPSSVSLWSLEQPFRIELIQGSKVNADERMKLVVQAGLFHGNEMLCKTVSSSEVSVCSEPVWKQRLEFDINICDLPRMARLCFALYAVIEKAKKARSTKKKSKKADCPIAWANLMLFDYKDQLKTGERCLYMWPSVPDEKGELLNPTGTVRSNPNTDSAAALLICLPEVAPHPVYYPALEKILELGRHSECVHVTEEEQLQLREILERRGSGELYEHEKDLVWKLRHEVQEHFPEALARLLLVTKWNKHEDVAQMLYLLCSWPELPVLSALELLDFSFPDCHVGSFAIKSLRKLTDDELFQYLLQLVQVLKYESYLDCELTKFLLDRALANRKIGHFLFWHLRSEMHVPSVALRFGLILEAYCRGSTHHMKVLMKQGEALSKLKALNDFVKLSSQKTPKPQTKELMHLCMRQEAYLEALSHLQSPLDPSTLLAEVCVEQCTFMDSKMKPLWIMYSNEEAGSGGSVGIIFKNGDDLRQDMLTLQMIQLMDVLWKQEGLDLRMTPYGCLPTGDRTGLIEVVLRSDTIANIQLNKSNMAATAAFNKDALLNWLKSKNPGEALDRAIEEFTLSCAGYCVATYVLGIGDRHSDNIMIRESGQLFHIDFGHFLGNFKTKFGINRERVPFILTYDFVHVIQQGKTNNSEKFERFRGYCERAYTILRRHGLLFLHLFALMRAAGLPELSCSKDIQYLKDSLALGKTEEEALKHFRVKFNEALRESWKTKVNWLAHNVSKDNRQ
Chain of PI3Kδ (P27986 whole entry partner, species assumed): as the sequence (P27986 whole entry partner, species assumed) above

For `COc1ncc(-c2nc(N3CCOCC3)c3nc(OC4CCOCC4)n(C)c3n2)cc1NS(C)(=O)=O` [Compound 20], the IC50 [1] was 4.6 nM and the “α/δ (ratio of IC50 values against PI3Kα to PI3Kδ)” value [2] was 15.

For `CS(=O)(=O)N1CCN(Cc2cnn3c(-c4cccc5[nH]ncc45)cc(N4CCOCC4)nc23)CC1` [Compound 11], the IC50 [1] was 606 nM and the “α/δ (ratio of IC50 values against PI3Kα to PI3Kδ)” value [2] was 2.3.

In the case of `CN1CCN(Cc2cnc3c(-c4cncc(NS(C)(=O)=O)c4)nc(N4CCOCC4)cn23)CC1` [Compound 14], the IC50 [1] is reported as 1040 nM and the “α/δ (ratio of IC50 values against PI3Kα to PI3Kδ)” value [2] is reported as >9.

For `C[C@@H](O)C(=O)N1CCN(Cc2cccc3c(-c4cnc(N)nc4)nc(N4CCOCC4)nc23)CC1` [Compound 4], the IC50 [1] was 45 nM and the “α/δ (ratio of IC50 values against PI3Kα to PI3Kδ)” value [2] was 2.

For `COc1ncc(-c2nc(N3CCOCC3)c3nc(OC4CCC(N5CCCC5)CC4)n(C)c3n2)cc1NS(C)(=O)=O` (stereo not shown) [Compound 21], the IC50 [1] was 15.3 nM and the “α/δ (ratio of IC50 values against PI3Kα to PI3Kδ)” value [2] was 91.

`COc1ncc(-c2nc(N3CCOCC3)nc3c(CN4CCN(C)C(=O)C4)cc(F)cc23)cc1NS(C)(=O)=O` [Compound 29] was tested, and the IC50 [1] was 19 nM and the “α/δ (ratio of IC50 values against PI3Kα to PI3Kδ)” value [2] was 22.

With `COc1ncc(-c2nc(N3CCOCC3)nc3c(CN4CCC(C(C)(C)O)CC4)cccc23)cc1NS(C)(=O)=O` [Compound 1] the IC50 [1] was 7.6 nM, the IC50 [3] was 29.1 nM and the “α/δ (ratio of IC50 values against PI3Kα to PI3Kδ)” value [2] was 341.

`COc1ncc(-c2nc(N3CCOCC3)nc3c(CN4CCC(N5CCCCC5)CC4)cccc23)cc1NS(C)(=O)=O` [Compound 3] was tested, and the IC50 [1] was 31 nM, the IC50 [3] was 31.7 nM and the “α/δ (ratio of IC50 values against PI3Kα to PI3Kδ)” value [2] was 119.

In the case of `COc1ncc(-c2nc(N3CCOCC3)nc3c(OCC4CCOCC4)cc(F)cc23)cc1NS(C)(=O)=O` [Compound 31], the IC50 [1] is reported as 27 nM and the “α/δ (ratio of IC50 values against PI3Kα to PI3Kδ)” value [2] is reported as 24.

`Nc1ncc(-c2nc(N3CCOCC3)nc3c(CN4CCN(C(=O)CO)CC4)cc(F)cc23)cn1` [Compound 22] was tested, and the IC50 [1] was 31 nM and the “α/δ (ratio of IC50 values against PI3Kα to PI3Kδ)” value [2] was 2.

In the case of `COc1ncc(-c2nc(N3CCOCC3)nc3c(CN4CCC(N5CCC5)CC4)cc(F)cc23)cc1NS(C)(=O)=O` [Compound 9], the IC50 [1] is reported as 19 nM and the “α/δ (ratio of IC50 values against PI3Kα to PI3Kδ)” value [2] is reported as 233.

In the case of `COc1ncc(-c2nc(N3CCOCC3)c3nc(OC4CN(C5CCCCC5)C4)n(C)c3n2)cc1NS(C)(=O)=O` [Compound 19], the IC50 [1] is reported as 5 nM and the “α/δ (ratio of IC50 values against PI3Kα to PI3Kδ)” value [2] is reported as 88.

`CC(C)(O)C1CCN(Cc2cnc3c(-c4cncc(NS(C)(=O)=O)c4)nc(N4CCOCC4)cn23)CC1` [Compound 13] was tested, and the IC50 [1] was 239 nM and the “α/δ (ratio of IC50 values against PI3Kα to PI3Kδ)” value [2] was >42.

In the case of `COc1ncc(-c2nc(N3CCOCC3)c3nc(OC4CCN(C5COC5)CC4)n(C)c3n2)cc1NS(C)(=O)=O` [Compound 18], the IC50 [1] is reported as 4.2 nM, the IC50 [3] is reported as 15.2 nM and the “α/δ (ratio of IC50 values against PI3Kα to PI3Kδ)” value [2] is reported as 11.

For `CS(=O)(=O)N1CCN(Cc2cccc3c(-c4cnc(N)nc4)nc(N4CCOCC4)nc23)CC1` [Compound 5], the IC50 [1] was 58.6 nM and the “α/δ (ratio of IC50 values against PI3Kα to PI3Kδ)” value [2] was 1.

For `COc1ncc(-c2nc(N3CCOCC3)nc3c(CN4CCC[C@H]4C(C)(C)O)cc(F)cc23)cc1NS(C)(=O)=O` [Compound 26], the IC50 [1] was 87 nM and the “α/δ (ratio of IC50 values against PI3Kα to PI3Kδ)” value [2] was 32.

With `COc1ncc(-c2nc(N3CCOCC3)nc3c(CN4CC(C(C)(C)O)C4)cc(F)cc23)cc1NS(C)(=O)=O` [Compound 27] the IC50 [1] was 24 nM, the IC50 [3] was 230 nM and the “α/δ (ratio of IC50 values against PI3Kα to PI3Kδ)” value [2] was 83.

With `COc1ncc(-c2nc(N3CCOCC3)nc3c(CN4CC[C@@H](N5CCCCC5=O)C4)cc(F)cc23)cc1NS(C)(=O)=O` [Compound 24] the IC50 [1] was 21 nM and the “α/δ (ratio of IC50 values against PI3Kα to PI3Kδ)” value [2] was 45.

`COc1ncc(-c2nc(N3CCOCC3)c3sc(CN4CCC(C(C)(C)O)CC4)c(C)c3n2)cc1NS(C)(=O)=O` [Compound 17] was tested, and the IC50 [1] was 3.4 nM and the “α/δ (ratio of IC50 values against PI3Kα to PI3Kδ)” value [2] was 38.

In the case of `CS(=O)(=O)N1CCN(Cc2cccc3c(-c4cccc5[nH]ncc45)nc(N4CCOCC4)nc23)CC1` [Compound 6], the IC50 [1] is reported as 457 nM and the “α/δ (ratio of IC50 values against PI3Kα to PI3Kδ)” value [2] is reported as 2.4.

For `COc1ncc(-c2nc(N3CCOCC3)nc3c(OC4CCOCC4)cc(F)cc23)cc1NS(C)(=O)=O` [Compound 32], the IC50 [1] was 38 nM and the “α/δ (ratio of IC50 values against PI3Kα to PI3Kδ)” value [2] was 23.

From patent US9656996B2, “Fused heterocyclic compound, preparation method therefor, pharmaceutical composition, and uses thereof” (SHANGHAI YINGLI PHARMACEUTICAL CO., LTD., priority 2013, dated 2017)
